“And” between values parts separate entries of the source, which are not always exact repeats. Equal values may be shown once. Read-outs that look alike come from different tables or passages of the source.
Key:
CD73 [1] = biological target: T1, CD73 (Homo sapiens (Human), UniProt P21589); assay: CD73 Biochemical IC50 Assay; details: CD73 0.3 nM, AMP 15 uM, 25 mM Tris pH 7.4, 5 mM MgCl2
Procedure: CD73 Biochemical IC50 Assay
Compound serial dilutions were pre-spotted into Thermo Nunc assay plate. 50 μL CD73 enzyme buffer (CD73 purchased from R&D system=0.6 nM, 25 mM Tris, pH 7.4, 5 mM MgCl2) was added into the assay plate and incubated for 15 mins. […] The samples were run using Rapid fire.

CD73 [2] = biological target: T1, CD73; assay: MDA-MB-231 Cell Based CD73 Activity Assay (DMEM); details: MDA-MB-231-GFP cells, DMEM medium with 10% human plasma, 200 uM AMP
CD73 [3] = biological target: T1, CD73; assay: MDA-MB-231 Cell Based CD73 Activity Assay; details: MDA-MB-231-GFP cells, RPMI medium with 10% human plasma, 200 uM AMP
CD73 [4] = biological target: T1, CD73; type: biochemical; details: 1 mM NaH2PO4 in enzyme buffer, CD73 0.3 nM, AMP 15 uM

T1 sequence (P21589 27-574): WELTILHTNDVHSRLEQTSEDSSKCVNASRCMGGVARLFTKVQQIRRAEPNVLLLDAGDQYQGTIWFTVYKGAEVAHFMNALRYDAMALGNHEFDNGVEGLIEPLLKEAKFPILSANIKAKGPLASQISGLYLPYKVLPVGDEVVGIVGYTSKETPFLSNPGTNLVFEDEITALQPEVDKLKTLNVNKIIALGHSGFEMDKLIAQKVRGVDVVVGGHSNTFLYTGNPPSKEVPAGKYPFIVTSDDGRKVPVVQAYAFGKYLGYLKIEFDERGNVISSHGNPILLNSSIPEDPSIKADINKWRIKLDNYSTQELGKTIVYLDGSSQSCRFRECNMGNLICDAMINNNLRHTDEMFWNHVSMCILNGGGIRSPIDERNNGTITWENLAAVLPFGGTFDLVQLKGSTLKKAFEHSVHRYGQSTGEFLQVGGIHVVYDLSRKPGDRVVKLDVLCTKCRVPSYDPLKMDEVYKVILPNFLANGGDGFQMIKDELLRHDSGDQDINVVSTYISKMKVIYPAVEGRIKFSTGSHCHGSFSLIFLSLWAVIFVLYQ

IC50 (CD73 [1]) | EC50 (CD73 [2]) [nM] | EC50 (CD73 [3]) | IC50 (CD73 [4]) [nM] | Structure (SMILES)
13.6 nM and 13 nM | 4.15 | 2.08 nM and 1.88 nM | 0.94 | O=c1[nH]cc(-c2cc([C@H]3C[C@@H]3c3ccccc3)c3nccn3n2)c(=O)[nH]1 (racemic) [Example 7, 5-(8-((1S,2S)-2-phenylcyclopropyl)imidazo[1,2-b]pyridazin-6-yl)pyrimidine-2,4-(1H,3H)-dione and 5-(8-((1R,2R)-2-phenylcyclopropyl)imidazo[1,2-b]pyridazin-6-yl)pyrimidine-2,4-(1H,3H)-dione]
28.7 nM | – | 7.59 nM | 2.08 | O=c1[nH]cc(-c2cc([C@H]3C[C@@H]3c3ccc(C(F)(F)F)cc3)c3nccn3n2)c(=O)[nH]1 (racemic) [Example 42, 5-[8-[(1S,2S)-2-[4-(trifluoromethyl)phenyl]cyclopropyl]imidazo[1,2-b]pyridazin-6-yl]-1H-pyrimidine-2,4-dione and 5-[8-[(1R,2R)-2-[4-(trifluoromethyl)phenyl]cyclopropyl]imidazo[1,2-b]pyridazin-6-yl]-1H-pyrimidine-2,4-dione]
20.1 nM | – | 2.69 nM | 1.14 | O=c1[nH]cc(-c2cc([C@H]3C[C@@H]3c3ccccn3)c3nccn3n2)c(=O)[nH]1 (racemic) [Example 52, 5-[8-[(1S,2S)-2-(2-pyridyl)cyclopropyl]imidazo[1,2-b]pyridazin-6-yl]-1H-pyrimidine-2,4-dione and 5-[8-[(1R,2R)-2-(2-pyridyl)cyclopropyl]imidazo[1,2-b]pyridazin-6-yl]-1H-pyrimidine-2,4-dione]
20.7 nM | – | 5.16 nM | 1.52 | O=c1[nH]cc(-c2cc([C@H]3C[C@@H]3c3cccnc3)c3nccn3n2)c(=O)[nH]1 (racemic) [Example 53, 5-[8-[(1S,2S)-2-(3-pyridyl)cyclopropyl]imidazo[1,2-b]pyridazin-6-yl]-1H-pyrimidine-2,4-dione and 5-[8-[(1R,2R)-2-(3-pyridyl)cyclopropyl]imidazo[1,2-b]pyridazin-6-yl]-1H-pyrimidine-2,4-dione]
17.7 nM | – | 3.4 nM | 1.98 | O=c1[nH]cc(-c2cc([C@H]3C[C@@H]3c3ccncc3)c3nccn3n2)c(=O)[nH]1 (racemic) [Example 54, 5-[8-[(1S,2S)-2-(4-pyridyl)cyclopropyl]imidazo[1,2-b]pyridazin-6-yl]-1H-pyrimidine-2,4-dione and 5-[8-[(1R,2R)-2-(4-pyridyl)cyclopropyl]imidazo[1,2-b]pyridazin-6-yl]-1H-pyrimidine-2,4-dione]
657 nM and 557 nM | – | 361 nM and 429 nM | – | CC(C)Oc1cc(-c2c[nH]c(=O)[nH]c2=O)nn2ccnc12 [Example 25, 5-(8-isopropoxyimidazo[1,2-b]pyridazin-6-yl)pyrimidine-2,4(1H,3H)-dione]
161 nM | – | 184 nM | – | O=c1[nH]cc(-c2cc(OCc3ccccc3)c3nccn3n2)c(=O)[nH]1 [Example 26]
90.4 nM | – | 145 nM | – | O=c1[nH]cc(-c2cc(C3CC3)n3nccc3n2)c(=O)[nH]1 [Example 27, 5-(7-cyclopropylpyrazolo[1,5-a]pyrimidin-5-yl)pyrimidine-2,4(1H,3H)-dione]
> 2500 nM | – | 872 nM | – | Cc1nc2c(C3CCC(F)(F)CC3)cc(-c3c[nH]c(=O)[nH]c3=O)nn2n1 [Example 55, 5-(8-(4,4-difluorocyclohexyl)-2-methyl-[1,2,4]triazolo[1,5-b]pyridazin-6-yl)pyrimidine-2,4(1H,3H)-dione]
> 2500 nM | – | 4460 nM | – | N#Cc1cnc2c(C3CCC(F)(F)CC3)cc(-c3c[nH]c(=O)[nH]c3=O)nn12 [Example 56, 8-(4,4-difluorocyclohexyl)-6-(2,4-dioxo-1,2,3,4-tetrahydropyrimidin-5-yl)imidazo[1,2-b]pyridazine-3-carbonitrile]
> 2500 nM | – | 3300 nM | – | Cc1cnc2c(C3CCC(F)(F)CC3)cc(-c3c[nH]c(=O)[nH]c3=O)nn12 [Example 57, 5-(8-(4,4-difluorocyclohexyl)-3-methylimidazo[1,2-b]pyridazin-6-yl)pyrimidine-2,4(1H,3H)-dione]
548 nM | – | 704 nM | – | O=c1[nH]cc(-c2cc(COCc3ccccc3)c3nccn3n2)c(=O)[nH]1 [Example 58, 5-(8-((benzyloxy)methyl)imidazo[1,2-b]pyridazin-6-yl)pyrimidine-2,4(1H,3H)-dione]
65 nM | – | 71.7 nM | – | O=c1[nH]cc(-c2cc(N3CC(c4ccccc4)C3)c3nccn3n2)c(=O)[nH]1 [Example 59, 5-(8-(3-phenylazetidin-1-yl)imidazo[1,2-b]pyridazin-6-yl)pyrimidine-2,4(1H,3H)-dione]
> 2500 nM | – | 4470 nM | – | O=c1[nH]cc(-c2cc(N3CCC3c3ccccc3)c3nccn3n2)c(=O)[nH]1 (stereo not drawn) [Example 66, 5-(8-(2-phenylazetidin-1-yl)imidazo[1,2-b]pyridazin-6-yl)pyrimidine-2,4(1H,3H)-dione]
55.4 nM | – | 47.8 nM | – | O=c1[nH]cc(-c2cc(C3CC3)c3ncc(F)n3n2)c(=O)[nH]1 [Example 69, 5-(8-cyclopropyl-3-fluoro-imidazo[1,2-b]pyridazin-6-yl)-1H-pyrimidine-2,4-dione]
1490 nM | – | 649 nM | – | O=c1[nH]cc(-c2cc(-c3ccc(NCC4CC4)cc3)c3nccn3n2)c(=O)[nH]1 [Example 71, 5-[8-[4-(cyclopropylmethylamino)phenyl]imidazo[1,2-b]pyridazin-6-yl]-1H-pyrimidine-2,4-dione]
126 nM | – | 136 nM | – | O=c1[nH]cc(-c2cc(C3CC3)c3nc(C4CC4)cn3n2)c(=O)[nH]1 [Example 75, 5-(2,8-dicyclopropylimidazo[1,2-b]pyridazin-6-yl)-1H-pyrimidine-2,4-dione]
1920 nM | – | 1230 nM | – | O=c1[nH]cc(-c2cc(-n3cccn3)c3nccn3n2)c(=O)[nH]1 [Example 78, 5-(8-pyrazol-1-ylimidazo[1,2-b]pyridazin-6-yl)-1H-pyrimidine-2,4-dione]
9.16 nM | – | 2.93 nM | – | O=c1[nH]cc(-c2cc([C@H]3C[C@@H]3c3ccc(F)cc3F)c3ncc(F)n3n2)c(=O)[nH]1 [Example 88, 5-[8-[(1S,2S)-2-(2,4-difluorophenyl)cyclopropyl]-3-fluoro-imidazo[1,2-b]pyridazin-6-yl]-1H-pyrimidine-2,4-dione]
211 nM | – | 248 nM | – | CC1(C)CCN(c2cc(-c3c[nH]c(=O)[nH]c3=O)nn3ccnc23)CC1 [Example 89, 5-[8-(4,4-dimethyl-1-piperidyl)imidazo[1,2-b]pyridazin-6-yl]-1H-pyrimidine-2,4-dione]
9.91 nM | – | 1.79 nM | – | O=c1[nH]cc(-c2cc([C@H]3C[C@@H]3c3ccc(F)c(F)c3)c3ncc(F)n3n2)c(=O)[nH]1 [Example 90, 5-[8-[(1S,2S)-2-(3,4-difluorophenyl)cyclopropyl]-3-fluoro-imidazo[1,2-b]pyridazin-6-yl]-1H-pyrimidine-2,4-dione]
104 nM | – | 62.2 nM | – | CC1(C)CCN(c2cc(-c3c[nH]c(=O)[nH]c3=O)nc3ccnn23)C1 [Example 91, 5-(7-(3,3-dimethylpyrrolidin-1-yl)pyrazolo[1,5-a]pyrimidin-5-yl)pyrimidine-2,4(1H,3H)-dione]
15.6 nM | – | 23.6 nM | 6.57 | CC1(C)CCN(c2cc(-c3c[nH]c(=O)[nH]c3=O)nc3ncnn23)C1 [Example 92, 5-(7-(3,3-dimethylpyrrolidin-1-yl)-[1,2,4]triazolo[1,5-a]pyrimidin-5-yl)pyrimidine-2,4(1H,3H)-dione]
132 nM | – | 76 nM | – | O=c1[nH]cc(-c2cc(N3CC4CCC(C4)C3)c3nccn3n2)c(=O)[nH]1 [Example 94, 5-(8-(3-azabicyclo[3.2.1]octan-3-yl)imidazo[1,2-b]pyridazin-6-yl)pyrimidine-2,4(1H,3H)-dione]
773 nM | – | 66.6 nM | – | O=c1[nH]cc(-c2cc(C3CC3)c3nc(-c4ccccc4C(F)(F)F)cn3n2)c(=O)[nH]1 [Example 96, 5-(8-cyclopropyl-2-(2-(trifluoromethyl)phenyl)imidazo[1,2-b]pyridazin-6-yl)pyrimidine-2,4(1H,3H)-dione]
> 2500 nM | – | 2050 nM | – | O=c1[nH]cc(-c2cc(C3CC3)c3nc(-c4ccncc4)cn3n2)c(=O)[nH]1 [Example 97, 5-(8-cyclopropyl-2-(pyridin-4-yl)imidazo[1,2-b]pyridazin-6-yl)pyrimidine-2,4(1H,3H)-dione]
473 nM | – | 258 nM | – | O=c1[nH]cc(-c2cc(C3CC3)c3nc(-c4cccnc4)cn3n2)c(=O)[nH]1 [Example 102, 5-(8-cyclopropyl-2-(pyridin-3-yl)imidazo[1,2-b]pyridazin-6-yl)pyrimidine-2,4(1H,3H)-dione]
70.8 nM | – | 45.1 nM | – | O=c1[nH]cc(-c2cc(C3CC3)c3nc(-c4ccccn4)cn3n2)c(=O)[nH]1 [Example 103, 5-(8-cyclopropyl-2-(pyridin-2-yl)imidazo[1,2-b]pyridazin-6-yl)pyrimidine-2,4(1H,3H)-dione]
44.5 nM | – | 13 nM | 2.97 | O=c1[nH]cc(-c2cc(N3CC(F)(F)C(F)(F)C3)c3nccn3n2)c(=O)[nH]1 [Example 109, 5-(8-(3,3,4,4-tetrafluoropyrrolidin-1-yl)imidazo[1,2-b]pyridazin-6-yl)pyrimidine-2,4(1H,3H)-dione]

— patent publication US20240043427A1 (Gilead Sciences, Inc., priority 2020, published 2024)
